Experimental data reported in US9265748B2, “Anhydrous and hemihydrate crystalline forms of an (R)-baclofen prodrug, methods of synthesis and methods of use” (XenoPort, Inc., priority 2011, dated 2016).
Values belong to the compound of their own block, whether it stands above or below them.

Legend:
[1] = Dynamic vapor sorption (hygroscopicity, water content); assay type: physicochemical; conditions: for water content at 50% relative humidity / water content at 95% relative humidity: dynamic vapor sorption
Excerpt: In certain embodiments, crystalline (3R)-4-{[(1S)-2-methyl-1-(2-methylpropanoyloxyl)propoxy]carbonylamino}-3-(4-chlorophenyl)butanoic acid hemihydrate is hygroscopic. […] In certain embodiments, crystalline (3R)-4-{[(1S)-2-methyl-1-(2-methylpropanoyloxyl)propoxy]carbonylamino}-3-(4-chlorophenyl)butanoic acid hemihydrate comprises from about 2 wt %-about 3 wt % water. In certain embodiments, crystalline (3R)-4-{[(1S)-2-methyl-1-(2-methylpropanoyloxyl)propoxy]carbonylamino}-3-(4-chlorophenyl)butanoic acid hemihydrate contains about 2.15 wt % water at 50% relative humidity as measured by dynamic vapor sorption. In certain embodiments, crystalline (3R)-4-{[(1S)-2-methyl-1-(2-methylpropanoyloxyl)propoxy]carbonylamino}-3-(4-chlorophenyl)butanoic acid hemihydrate contains about 3 wt % water at 95% relative humidity as measured by dynamic vapor sorption.
In certain embodiments, crystalline (3R)-4-{[(1S)-2-methyl-1-(2-methylpropanoyloxyl)propoxy]carbonylamino}-3-(4-chlorophenyl)butanoic acid anhydrate contains less than about 0.05 wt % water at 50% relative humidity as measured by dynamic vapor sorption. In certain embodiments, crystalline (3R)-4-{[(1S)-2-methyl-1-(2-methylpropanoyloxyl)propoxy]carbonylamino}-3-(4-chlorophenyl)butanoic acid anhydrate contains less than about 0.1 wt % water at 95% relative humidity as measured by dynamic vapor sorption.

[2] = Thermogravimetric analysis (TG-FTIR); assay type: physicochemical; conditions: for temperature at which thermal decomposition began slowly: TG-FTIR, 10 K/min, increased strongly above 190° C.
Method: Thermogravimetric measurements were carried out with a Netzsch Thermo-Microbalance TG 209 coupled to a Bruker FTIR Spectrometer Vector 22. The sample was contained in sample pans with a pinhole, under a N2 atmosphere. The heating rate was set at 10 K/min. […]

[3] = test system: retching and vomiting induced by morphine; conditions: Suzuki et al.; cited from earlier work
[4] = test system: emesis induced by nicotine and motion; conditions: animal models (Chan et al.); cited from earlier work
[5] = test system: allodynia and hyperalgesia; conditions: doses lower than those required to produce sedation and impairment of motor activity; cited from earlier work
[6] = test system: neuropathic pain; conditions: intrathecal; spinal-cord injury and multiple sclerosis, painful extremity paresthesias, sympathetically maintained pain; cited from earlier work
[7] = test system: musculoskeletal pain; conditions: in vivo; cited from earlier work
[8] = Solubility in crystallization solvents; assay type: physicochemical
Excerpt: As used herein, the terms solution and suspension are used interchangeably and are meant to include embodiments in which a compound is in a solvent or solvent mixture regardless of solubility. […] In general, solvent combinations in which a compound is soluble within a first temperature range, and poorly soluble within a second temperature range, can be used in the crystallization methods disclosed herein. Mixtures of a “good” solvent and an “anti-solvent” can also be used with temperature dependent solubilization, i.e., dissolving at elevated temperature and crystallizing at room temperature. Examples of suitable “good” solvents, i.e., solvents in which (3R)-4-{[(1S)-2-methyl-1-(2-methylpropanoyloxyl)propoxy]carbonylamino}-3-(4-chlorophenyl)butanoic acid is soluble, include methanol, ethanol, isopropanol, acetone, methyl isobutyl ketone, tetrahydrofuran, 2-methyl tetrahydrofuran, 1,4-dioxane, 1,2-ethandiol, 1,2-propanediol, 2-methoxyethanol, 2-ethoxyethanol, and a mixture of any of the foregoing.

[9] = dosed either orally or directly into the colon of a mammal; cited from earlier work
[10] = test system: reflux episodes; conditions: clinical trials (Castell et al.); cited from earlier work
[11] = test system: TLESRs; conditions: humans; cited from earlier work
[12] = test system: substance addiction; conditions: clinical trials: cocaine addiction, methamphetamine dependence, opioid dependence, alcohol craving and intake, nicotine use, drug addiction generally; cited from earlier work

Compound: NCC(CC(=O)O)c1ccc(Cl)cc1 (racemic) [baclofen, (±)-4-amino-3-(4-chlorophenyl)butanoic acid]
- effect on retching and vomiting induced by morphine [3]: suppress the retching and vomiting
- effect on emesis induced by nicotine and motion [4]: antagonize emesis
- effect on allodynia and hyperalgesia [5]: inhibits allodynia and hyperalgesia
- efficacy in treating neuropathic pain [6]: effective
- efficacy in treating migraine, tension-type headaches, low-back pain and radiculopathy [7]: effective

Compound: NC[C@H](CC(=O)O)c1ccc(Cl)cc1 [(R)-baclofen, (R)-4-amino-3-(4-chlorophenyl)butanoic acid]
- effect on TLESRs [11]: reduce TLESRs
- efficacy in treating addiction [12]: effective

Continued, in another order:

- hygroscopicity [1]: hygroscopic
- water content at 50% relative humidity [1]: about 2.15 wt %
- water content at 95% relative humidity [1]: about 3 wt %
- hygroscopicity above about 60% relative humidity ([1]; above about 60% relative humidity): slightly hygroscopic
- temperature at which thermal decomposition began slowly [2]: about 170 °C
- weight loss up to 170° C. ([2]; scan rate 10 K/min, N2 atmosphere, loss predominantly between 80° C. and 130° C., attributable to water): about 2.1%
Compound: (3R)-4-{[(1S)-2-methyl-1-(2-methylpropanoyloxyl)propoxy]carbonylamino}-3-(4-chlorophenyl)butanoic acid hemihydrate

- hygroscopicity [1]: not hygroscopic
- water content at 50% relative humidity [1]: less than 0.05 wt %
- water content at 95% relative humidity [1]: less than 0.1 wt %
- temperature at which thermal decomposition began slowly [2]: about 170 °C
- weight loss up to 180° C. ([2]; scan rate 10 K/min, N2 atmosphere): very little weight loss
Compound: CC(C)C(=O)O[C@@H](OC(=O)NC[C@H](CC(=O)O)c1ccc(Cl)cc1)C(C)C [(3R)-4-{[(1S)-2-methyl-1-(2-methylpropanoyloxyl)propoxy]carbonylamino}-3-(4-chlorophenyl)butanoic acid anhydrate]

- solubility in "good" solvents ([8]; methanol, ethanol, isopropanol, acetone, methyl isobutyl ketone, tetrahydrofuran, 2-methyl tetrahydrofuran, 1,4-dioxane, 1,2-ethandiol, 1,2-propanediol, 2-methoxyethanol, 2-ethoxyethanol): soluble
- solubility in "anti-solvents" ([8]; water, diethyl ether, diisopropyl ether, methyl t-butyl ether, toluene, chlorobenzene, alkanes, cyclohexane, methylcyclohexane): poor solubility
Compound: CC(C)C(=O)O[C@@H](OC(=O)NC[C@H](CC(=O)O)c1ccc(Cl)cc1)C(C)C [Compound 1, (3R)-4-{[(1S)-2-methyl-1-(2-methylpropanoyloxyl)propoxy]carbonylamino}-3-(4-chlorophenyl)butanoic acid]
- bioavailability as R-baclofen [9]: high bioavailability
- effect on reflux episodes [10]: reduce reflux episodes
